Results taken from ChEMBL document CHEMBL4311997, “Discovery of a potent histone deacetylase (HDAC) 3/6 selective dual inhibitor” (Eur J Med Chem, 2019).
≈ marks a conversion by molar mass, not a printed value. Calls of active or inactive are those of the source. The calls are words filed in the database; no cut-off is given here.

Experiments:
Homo sapiens [1] = organism: Homo sapiens; test: Inhibition of human MLL1 complex at 100 uM using core histone as substrate incubated for 1 hr in presence of [3H]-SAM by filter binding method relative to control
[2] = molecular target: Histone-lysine N-methyltransferase, H3 lysine-79 specific (Homo sapiens) (UniProt Q8TEK3); test: Inhibition of human DOT1L at 100 uM using oligo nucleosomes as substrate incubated for 1 hr in presence of [3H]-SAM by filter binding method relative to control
[3] = molecular target: DNA (cytosine-5)-methyltransferase 3A (Homo sapiens, UniProt Q9Y6K1); test: Inhibition of human DNMT3a using lambda DNA as substrate incubated for 1 hr in presence of [3H]-SAM by filter binding method
[4] = molecular target: Histone deacetylase 9 (Homo sapiens) (UniProt Q9UKV0); test: Inhibition of human HDAC9 at 10 uM using Acetyl-Lys (trifluoroacetyl)-AMC) as substrate incubated for 2 hrs by fluorescence assay relative to control
Histone deacetylase 8 = Histone deacetylase 8 (Homo sapiens, UniProt Q9BY41); test: Inhibition of human HDAC8 using Arg-His-Lys (Ac)-Lys (Ac) as substrate incubated for 2 hrs by fluorescence assay
[5] = molecular target: Histone deacetylase 7 (Homo sapiens) (UniProt Q8WUI4); test: Inhibition of human HDAC7 at 10 uM using Acetyl-Lys (trifluoroacetyl)-AMC) as substrate incubated for 2 hrs by fluorescence assay
[6] = molecular target: Histone deacetylase 5 (Homo sapiens) (UniProt Q9UQL6); test: Inhibition of human HDAC5 at 10 uM using Acetyl-Lys (trifluoroacetyl)-AMC) as substrate incubated for 2 hrs by fluorescence assay relative to control
[7] = molecular target: Histone deacetylase 4 (Homo sapiens) (UniProt P56524); test: Inhibition of human HDAC4 at 10 uM using Acetyl-Lys (trifluoroacetyl)-AMC) as substrate incubated for 2 hrs by fluorescence assay relative to control
Histone deacetylase 3 = Histone deacetylase 3 (Homo sapiens, UniProt O15379); test: Inhibition of human HDAC3 using Arg-His-Lys-Lys (Ac) as substrate incubated for 2 hrs by fluorescence assay
Histone deacetylase 2 = Histone deacetylase 2 (Homo sapiens, UniProt Q92769); test: Inhibition of human HDAC2 using Arg-His-Lys-Lys (Ac) as substrate incubated for 2 hrs by fluorescence assay
MDA-MB-231 [8] = test: Antiproliferative activity against human MDA-MB-231 cells incubated for 72 hrs by MTT assay; format: functional, cell-based; details: MDA-MB-231, 72 h
MDA-MB-231 [9] = test: Induction of apoptosis in human MDA-MB-231 cells assessed as viable cells at 3 uM incubated for 48 hrs by Annexin V-FITC/PI staining by flow cytometric analysis (reference value: 77%); format: functional; details: MDA-MB-231, 48 h, read-out: Activity
MDA-MB-231 [10] = test: Induction of apoptosis in human MDA-MB-231 cells assessed as viable cells at 6 uM incubated for 48 hrs by Annexin V-FITC/PI staining by flow cytometric analysis (reference value: 77%); format: functional; details: MDA-MB-231, 48 h, read-out: Activity
MDA-MB-231 [11] = test: Induction of apoptosis in human MDA-MB-231 cells assessed as viable cells at 9 uM incubated for 48 hrs by Annexin V-FITC/PI staining by flow cytometric analysis (reference value: 77%); format: functional; details: MDA-MB-231, 48 h, read-out: Activity
[12] = molecular target: Protein deacetylase HDAC6 (Homo sapiens) (UniProt Q9UBN7); test: Inhibition of HDAC6 in human KMS-12-BM cells assessed as increase in Ac-Tubulin level at 2.5 to 10 uM incubated for 24 hrs by Western blot analysis; format: cell-based
[13] = Kinetic solubility in pH 7.4 universal buffer measured after 3 hrs by UV spectroscopic analysis; format: physicochemical; details: read-out: Kinetic_solubility
[14] = Kinetic solubility in pH 7.4 universal buffer measured after 24 hrs by UV spectroscopic analysis; format: physicochemical; details: read-out: Kinetic_solubility
[15] = Effective permeability of the compound at pH 7.4 measured after 6 hrs by PAMPA assay; format: ADME; details: read-out: Peff
[16] = Therapeutic Index, ratio of EC50 for human AC10 cells to EC50 for human MDA-MB-231 cells; format: toxicity; details: AC10 cells versus MDA-MB-231 cells, read-out: Ratio EC50
TAMH = test: Cytotoxicity against TAMH cells incubated for 24 hrs by CellTiter-Glo Cell Viability Assay; format: cell-based; details: Mus musculus
[17] = Half life in mouse liver microsomes at 3 uM preincubated for 5 mins followed by NADPH addition and measured up to 45 mins by LC-MS/MS analysis; format: ADME, Microsome
[18] = Selectivity index, ratio of EC50 for human MDA-MB-231 cells to IC50 for ring stage Plasmodium falciparum 3D7; format: functional; design: reference not given here
[19] = molecular target: Histone-lysine N-methyltransferase EHMT2 (Homo sapiens, UniProt Q96KQ7); test: Inhibition of human G9a using core histone H3 (1 to 21 residues) as substrate incubated for 1 hr in presence of [3H]-SAM by filter binding method
Histone deacetylase 11 = Histone deacetylase 11 (Homo sapiens, UniProt Q96DB2); test: Inhibition of human HDAC11 using Acetyl-Lys (trifluoroacetyl)-AMC) as substrate incubated for 2 hrs by fluorescence assay
Homo sapiens [20] = organism: Homo sapiens; test: Selectivity ratio of IC50 for inhibition of human HDAC1 to IC50 for inhibition of human HDAC3

Sequence of Histone deacetylase 2 (Q92769 whole entry): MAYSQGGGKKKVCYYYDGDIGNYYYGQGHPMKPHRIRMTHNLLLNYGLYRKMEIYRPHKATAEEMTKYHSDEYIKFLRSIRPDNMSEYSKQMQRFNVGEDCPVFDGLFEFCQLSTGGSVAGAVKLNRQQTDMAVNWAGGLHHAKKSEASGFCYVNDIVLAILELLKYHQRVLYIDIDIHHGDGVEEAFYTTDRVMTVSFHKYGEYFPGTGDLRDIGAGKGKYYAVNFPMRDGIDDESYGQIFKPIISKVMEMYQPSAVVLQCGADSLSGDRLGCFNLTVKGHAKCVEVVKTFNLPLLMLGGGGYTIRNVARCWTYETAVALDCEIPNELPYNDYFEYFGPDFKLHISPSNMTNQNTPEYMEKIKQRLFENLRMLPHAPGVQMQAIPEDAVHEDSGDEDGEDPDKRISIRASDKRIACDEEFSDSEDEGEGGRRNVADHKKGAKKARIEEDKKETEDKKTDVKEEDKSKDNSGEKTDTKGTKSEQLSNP
Sequence of Histone-lysine N-methyltransferase EHMT2 (Q96KQ7 whole entry, the tested form may be a part): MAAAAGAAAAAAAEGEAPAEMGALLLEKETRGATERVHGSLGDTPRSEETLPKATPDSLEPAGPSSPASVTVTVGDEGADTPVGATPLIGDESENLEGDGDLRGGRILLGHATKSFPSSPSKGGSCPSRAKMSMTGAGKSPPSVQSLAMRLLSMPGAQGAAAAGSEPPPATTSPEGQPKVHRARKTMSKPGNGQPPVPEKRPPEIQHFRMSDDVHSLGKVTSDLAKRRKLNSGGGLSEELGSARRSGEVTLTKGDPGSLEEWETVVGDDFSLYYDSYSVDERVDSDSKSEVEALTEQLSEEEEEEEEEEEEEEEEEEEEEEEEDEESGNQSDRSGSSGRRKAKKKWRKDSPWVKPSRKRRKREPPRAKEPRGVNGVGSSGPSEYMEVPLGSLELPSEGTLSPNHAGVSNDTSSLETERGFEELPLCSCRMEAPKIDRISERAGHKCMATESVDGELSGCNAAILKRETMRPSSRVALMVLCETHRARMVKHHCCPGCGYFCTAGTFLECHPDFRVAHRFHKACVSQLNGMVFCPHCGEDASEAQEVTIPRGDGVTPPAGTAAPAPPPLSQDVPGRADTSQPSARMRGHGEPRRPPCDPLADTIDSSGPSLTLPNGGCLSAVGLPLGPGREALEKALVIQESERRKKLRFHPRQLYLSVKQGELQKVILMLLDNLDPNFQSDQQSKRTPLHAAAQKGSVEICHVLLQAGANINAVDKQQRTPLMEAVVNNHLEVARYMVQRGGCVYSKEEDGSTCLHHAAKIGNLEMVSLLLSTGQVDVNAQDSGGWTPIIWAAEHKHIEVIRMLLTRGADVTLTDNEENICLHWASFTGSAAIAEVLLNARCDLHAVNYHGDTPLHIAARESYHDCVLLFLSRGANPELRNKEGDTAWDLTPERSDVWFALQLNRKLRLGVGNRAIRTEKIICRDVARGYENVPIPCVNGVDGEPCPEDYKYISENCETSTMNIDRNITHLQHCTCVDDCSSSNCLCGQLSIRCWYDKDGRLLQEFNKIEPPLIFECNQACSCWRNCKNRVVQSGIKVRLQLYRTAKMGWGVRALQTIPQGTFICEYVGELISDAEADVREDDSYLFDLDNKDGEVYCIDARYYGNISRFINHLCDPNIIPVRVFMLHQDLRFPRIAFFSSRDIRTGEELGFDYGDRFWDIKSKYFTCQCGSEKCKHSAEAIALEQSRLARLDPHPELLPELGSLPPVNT
Sequence of DNA (cytosine-5)-methyltransferase 3A (Q9Y6K1 whole entry, looked up): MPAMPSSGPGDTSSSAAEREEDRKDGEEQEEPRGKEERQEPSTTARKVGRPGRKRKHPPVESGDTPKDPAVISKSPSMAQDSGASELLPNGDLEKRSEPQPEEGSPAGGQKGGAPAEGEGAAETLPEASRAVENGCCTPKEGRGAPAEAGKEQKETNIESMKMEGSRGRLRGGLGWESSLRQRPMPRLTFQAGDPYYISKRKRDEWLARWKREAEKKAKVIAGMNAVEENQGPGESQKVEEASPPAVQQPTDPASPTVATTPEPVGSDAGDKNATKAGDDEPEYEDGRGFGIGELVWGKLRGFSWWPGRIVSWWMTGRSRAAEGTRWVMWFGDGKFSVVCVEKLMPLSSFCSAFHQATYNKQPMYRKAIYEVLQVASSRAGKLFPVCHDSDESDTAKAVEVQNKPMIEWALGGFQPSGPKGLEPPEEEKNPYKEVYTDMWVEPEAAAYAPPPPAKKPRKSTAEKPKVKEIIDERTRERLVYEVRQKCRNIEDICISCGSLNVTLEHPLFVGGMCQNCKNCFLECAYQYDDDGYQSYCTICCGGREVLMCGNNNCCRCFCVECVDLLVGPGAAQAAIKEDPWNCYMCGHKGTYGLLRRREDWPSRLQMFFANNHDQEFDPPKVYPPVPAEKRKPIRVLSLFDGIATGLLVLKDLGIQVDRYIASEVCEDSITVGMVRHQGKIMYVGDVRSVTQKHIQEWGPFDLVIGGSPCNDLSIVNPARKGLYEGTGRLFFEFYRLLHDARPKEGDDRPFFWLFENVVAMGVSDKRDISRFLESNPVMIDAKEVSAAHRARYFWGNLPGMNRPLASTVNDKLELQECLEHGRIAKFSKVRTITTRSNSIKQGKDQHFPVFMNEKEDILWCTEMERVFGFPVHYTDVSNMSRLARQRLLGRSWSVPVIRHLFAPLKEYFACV
Sequence of Histone deacetylase 5 (Homo sapiens) (Q9UQL6 whole entry): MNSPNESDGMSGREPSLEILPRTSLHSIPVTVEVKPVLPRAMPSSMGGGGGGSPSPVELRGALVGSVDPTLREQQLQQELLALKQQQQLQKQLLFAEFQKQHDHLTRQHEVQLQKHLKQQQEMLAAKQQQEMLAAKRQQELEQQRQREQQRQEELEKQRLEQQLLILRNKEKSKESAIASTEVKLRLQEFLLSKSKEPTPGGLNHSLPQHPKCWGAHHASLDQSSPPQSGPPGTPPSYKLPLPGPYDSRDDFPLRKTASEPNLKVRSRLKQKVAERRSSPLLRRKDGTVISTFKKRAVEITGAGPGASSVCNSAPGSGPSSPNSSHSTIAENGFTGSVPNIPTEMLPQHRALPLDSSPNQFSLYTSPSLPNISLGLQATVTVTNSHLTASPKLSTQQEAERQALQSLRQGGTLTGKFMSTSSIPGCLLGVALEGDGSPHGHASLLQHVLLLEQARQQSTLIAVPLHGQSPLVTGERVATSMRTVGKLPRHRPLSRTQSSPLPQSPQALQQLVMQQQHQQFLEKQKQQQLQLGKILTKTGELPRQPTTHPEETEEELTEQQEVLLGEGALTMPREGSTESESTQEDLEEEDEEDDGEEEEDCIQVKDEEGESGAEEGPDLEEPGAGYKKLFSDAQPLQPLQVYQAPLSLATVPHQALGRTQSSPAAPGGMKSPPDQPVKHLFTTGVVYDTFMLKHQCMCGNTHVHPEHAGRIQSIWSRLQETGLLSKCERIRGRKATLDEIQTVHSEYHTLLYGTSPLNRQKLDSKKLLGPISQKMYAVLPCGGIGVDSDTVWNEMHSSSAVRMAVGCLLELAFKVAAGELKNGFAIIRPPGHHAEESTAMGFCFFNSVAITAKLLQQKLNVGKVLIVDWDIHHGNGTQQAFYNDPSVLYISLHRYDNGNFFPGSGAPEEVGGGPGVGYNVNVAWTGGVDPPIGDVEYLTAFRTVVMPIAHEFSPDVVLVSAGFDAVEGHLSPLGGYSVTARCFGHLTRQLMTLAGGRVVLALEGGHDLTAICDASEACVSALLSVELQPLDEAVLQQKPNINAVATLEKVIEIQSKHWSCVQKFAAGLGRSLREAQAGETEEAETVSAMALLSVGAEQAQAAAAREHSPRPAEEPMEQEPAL
Sequence of Histone deacetylase 3 (O15379 whole entry): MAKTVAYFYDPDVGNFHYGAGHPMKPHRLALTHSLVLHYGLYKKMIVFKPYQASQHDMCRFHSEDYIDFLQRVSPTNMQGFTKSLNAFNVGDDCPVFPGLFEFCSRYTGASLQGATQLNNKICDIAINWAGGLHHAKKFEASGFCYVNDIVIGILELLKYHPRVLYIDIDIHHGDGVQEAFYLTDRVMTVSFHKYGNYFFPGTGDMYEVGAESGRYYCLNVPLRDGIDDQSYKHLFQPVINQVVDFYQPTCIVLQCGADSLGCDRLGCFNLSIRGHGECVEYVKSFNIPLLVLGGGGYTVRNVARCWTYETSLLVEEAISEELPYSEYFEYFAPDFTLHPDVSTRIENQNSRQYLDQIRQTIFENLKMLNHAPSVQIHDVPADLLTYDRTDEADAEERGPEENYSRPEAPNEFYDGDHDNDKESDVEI
Sequence of Histone deacetylase 8 (Q9BY41 whole entry): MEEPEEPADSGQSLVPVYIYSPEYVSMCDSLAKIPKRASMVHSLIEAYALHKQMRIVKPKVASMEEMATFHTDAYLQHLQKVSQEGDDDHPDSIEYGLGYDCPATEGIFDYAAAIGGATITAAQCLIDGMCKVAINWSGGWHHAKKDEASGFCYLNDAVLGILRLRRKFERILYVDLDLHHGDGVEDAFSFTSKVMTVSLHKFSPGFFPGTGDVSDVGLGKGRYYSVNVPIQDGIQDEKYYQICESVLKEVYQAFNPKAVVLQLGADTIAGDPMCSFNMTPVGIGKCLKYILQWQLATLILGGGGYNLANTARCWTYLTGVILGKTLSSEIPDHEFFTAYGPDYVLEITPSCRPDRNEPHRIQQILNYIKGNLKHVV
Sequence of Histone deacetylase 11 (Q96DB2 whole entry): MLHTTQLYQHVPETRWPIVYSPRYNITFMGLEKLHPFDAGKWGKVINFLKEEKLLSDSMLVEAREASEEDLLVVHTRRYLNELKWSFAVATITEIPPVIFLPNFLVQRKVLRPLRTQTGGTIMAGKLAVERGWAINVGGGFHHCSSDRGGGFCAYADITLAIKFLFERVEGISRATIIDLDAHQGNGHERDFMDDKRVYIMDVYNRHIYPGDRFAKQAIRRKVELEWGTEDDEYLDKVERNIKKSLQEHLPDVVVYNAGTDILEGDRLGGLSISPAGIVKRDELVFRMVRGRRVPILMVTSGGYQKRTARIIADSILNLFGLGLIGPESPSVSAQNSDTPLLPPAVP

SMILES: COc1ccc(CN2CCC(Nc3nc(Nc4ccc(NC(=O)CCCCCCC(=O)NO)cc4)nc4cc(OC)c(OC)cc34)CC2)cc1
- inhibition (Homo sapiens [1]): 42%
- inhibition [2]: 16%
- IC50 [3]: 74 µM
- inhibition [4]: 21%
- IC50 (Histone deacetylase 8): 1.26 µM
- inhibition [5]: inactive
- inhibition [6]: 25%
- inhibition [7]: 20%
- IC50 (Histone deacetylase 3): 0.034 µM
- IC50 (Histone deacetylase 2): 1.13 µM
- EC50 (MDA-MB-231 [8]): 6.3 µM
- viability at 3 µM (MDA-MB-231 [9]): 48%
- viability at 6 µM (MDA-MB-231 [10]): 52%
- viability at 9 µM (MDA-MB-231 [11]): 57%
- inhibition [12]: Active
- solubility kinetic at 3 h [13]: 4.6 µM (≈ 3.15 µg/mL)
- solubility kinetic at 24 h [14]: 4 µM (≈ 2.74 µg/mL)
- Papp at 6 h [15]: 21.8 ×10⁻⁶ cm/s
- selectivity ratio [16]: 15
- EC50 (TAMH): 29 µM
- half-life at 3 µM [17]: 26.6 min
- Selectivity Index [18]: 43
- EC50 [19]: 142 µM
- IC50 (Histone deacetylase 11): 1.81 µM
- Ratio IC50 (Homo sapiens [20]): 26 to 33
